Results published in ChEMBL document CHEMBL2074117, “Influence of redox-active compounds and PXR-activators on human MRP1 and MRP2 gene expression” (Toxicology, 2002).

How the values were obtained:
[1] = target: T1, ATP-binding cassette sub-family C member 2 (Homo sapiens, UniProt Q92887); assay: TP_TRANSPORTER: Western blot, HepG2 cells; format: functional, cell-based
[2] = target: T1, ATP-binding cassette sub-family C member 2; assay: TP_TRANSPORTER: RT-PCR in HepG2 cells; format: functional, cell-based

T1 sequence (Q92887 whole entry): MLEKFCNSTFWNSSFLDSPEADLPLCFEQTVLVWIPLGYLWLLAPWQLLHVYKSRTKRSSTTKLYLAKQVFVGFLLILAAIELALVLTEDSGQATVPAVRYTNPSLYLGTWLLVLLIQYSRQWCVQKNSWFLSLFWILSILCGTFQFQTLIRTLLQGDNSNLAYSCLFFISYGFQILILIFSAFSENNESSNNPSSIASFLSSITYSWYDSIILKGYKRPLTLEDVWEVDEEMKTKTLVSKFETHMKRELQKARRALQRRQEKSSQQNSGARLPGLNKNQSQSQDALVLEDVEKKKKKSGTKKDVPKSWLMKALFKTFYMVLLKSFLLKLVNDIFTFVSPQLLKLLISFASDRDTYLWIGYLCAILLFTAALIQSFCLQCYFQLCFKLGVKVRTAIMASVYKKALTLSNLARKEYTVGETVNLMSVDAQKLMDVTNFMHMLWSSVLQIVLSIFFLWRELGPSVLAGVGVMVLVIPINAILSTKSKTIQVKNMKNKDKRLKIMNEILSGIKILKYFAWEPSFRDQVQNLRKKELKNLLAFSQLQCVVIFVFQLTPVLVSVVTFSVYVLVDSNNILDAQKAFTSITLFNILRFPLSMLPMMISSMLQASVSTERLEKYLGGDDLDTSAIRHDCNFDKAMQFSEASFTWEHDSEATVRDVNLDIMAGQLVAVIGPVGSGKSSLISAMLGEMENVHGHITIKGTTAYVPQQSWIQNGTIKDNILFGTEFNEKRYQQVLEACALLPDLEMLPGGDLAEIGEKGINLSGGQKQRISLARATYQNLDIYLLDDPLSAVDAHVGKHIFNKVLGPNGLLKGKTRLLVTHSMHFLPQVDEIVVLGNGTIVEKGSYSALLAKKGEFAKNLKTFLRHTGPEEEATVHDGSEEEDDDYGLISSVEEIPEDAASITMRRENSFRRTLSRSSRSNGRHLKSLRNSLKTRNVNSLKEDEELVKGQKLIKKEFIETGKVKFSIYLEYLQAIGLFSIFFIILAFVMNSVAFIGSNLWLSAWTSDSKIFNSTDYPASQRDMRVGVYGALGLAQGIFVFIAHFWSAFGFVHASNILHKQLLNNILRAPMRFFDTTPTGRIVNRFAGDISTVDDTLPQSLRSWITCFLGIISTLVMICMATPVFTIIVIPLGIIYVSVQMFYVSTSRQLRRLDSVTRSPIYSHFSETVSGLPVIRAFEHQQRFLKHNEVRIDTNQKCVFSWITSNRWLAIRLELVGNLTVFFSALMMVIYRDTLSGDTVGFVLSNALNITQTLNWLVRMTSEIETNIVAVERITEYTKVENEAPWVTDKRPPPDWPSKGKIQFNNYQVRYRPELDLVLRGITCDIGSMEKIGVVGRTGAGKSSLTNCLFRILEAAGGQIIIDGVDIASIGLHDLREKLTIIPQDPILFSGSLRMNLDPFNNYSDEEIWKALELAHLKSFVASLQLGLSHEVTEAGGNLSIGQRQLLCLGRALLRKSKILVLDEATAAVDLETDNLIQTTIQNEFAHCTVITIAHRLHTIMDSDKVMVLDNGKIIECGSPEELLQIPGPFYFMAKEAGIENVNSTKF

Row | Compound | Activity [1] | Activity [2]
1 | Clc1ccccc1C(c1ccccc1)(c1ccccc1)n1ccnc1 [CLOTRIMAZOLE] | inducer [+] | inducer [+]
2 | CC(C)(C)c1cc(O)ccc1O [E319] | inducer [+] | inducer [+]
3 | CO[C@H]1/C=C/O[C@@]2(C)Oc3c(C)c(O)c4c(O)c(c(/C=N/N5CCN(C)CC5)c(O)c4c3C2=O)NC(=O)/C(C)=C\C=C\[C@H](C)[C@H](O)[C@@H](C)[C@@H](O)[C@@H](C)[C@H](OC(C)=O)[C@@H]1C [RIFAMPIN] | inducer [+] | inducer [+]
4 | O[As](O)O [TRIHYDROXYARSENITE(III)] | inducer [+] | inducer [+]
